Consider six molecules from PMC1779548, “Antihuman Immunodeficiency Virus Type 1 (HIV-1) Activity of Rare Earth Metal Complexes of 4-Hydroxycoumarins in Cell Culture” (Bioinorganic Chemistry and Applications, 2006).

The subject of series [1] is MT-2 cells. Briefly: in vitro. Format: cell-based. As to conditions: for MNC (maximal nontoxic concentration) / CC50 / MNC higher compared to La(1) and the ligand (1): MT-2 cells; for MNC (maximal nontoxic concentration) / CC50: neutral red uptake, 72 h; for MNC higher compared to La(1) and the ligand (1): ratio of MNC. The text has this:
(§1) The following cell lines were used: H9/HTLV III B—chronically infected with HIV-1LAI cells, kindly provided by Professor R. Gallo, and MT-2 uninfected human lymphoblastoid cells, HTLV-I transformed. The cells were maintained in RPMI 1640 plus 10% FCS.
(§2) The following parameters were studied: cytotoxic concentration 50—CC50 (concentration […] death of 50% of MT-2 cells), maximal nontoxic concentration—MNC (the highest concentration causing no cytotoxicity), and inhibitory concentration 50–IC50 (concentration inhibiting by 50% the viral replication). CC50 and MNC were detected by neutral red uptake assay. IC50 was studied on MT-2 cells by microtiter infection assay using neutral red uptake. Briefly, the experimental procedure under conditions of acute infection was performed in 96-well microplates in the following sequence:
(§3) • 100 μL MT-2 cells (4–5 × 10 ^4 cells); • 50 μL HIV-1 (undiluted or in the appropriate dilution to obtain multiplicity of infection ≥ 1); contact (2 hours at 37°C/5% CO2); when CC50 and MNC were detected, growth medium instead of virus has been added; • 50 μL sample of substance tested starting from 4× MNC (because this volume is 1/4 of the whole volume in the well) and 2- or 10-fold dilutions in growth medium.
(§4) The cells were incubated for 72 hours and then 100 μL of them were removed to another 96-well plate previously treated for an hour with 50 μg/mL poly-L-lysine (PLL) in volume 100 μL. A solution of 100 μL per well of neutral red in growth medium (0.016%) was added and the cells were incubated for 2 hours at 37°C/5% CO2. Neutral red dye was extracted by acidified alcohol (50% ethanol in 1% acetic acid) and measured colorimetrically at 540 nm. Each plate contained 8 cell control wells (no virus, no substance) for all kinds of experiments. When IC50 was detected, a row of 8 viral controls (plus virus, no substance) and rows of 8 experimental wells (plus virus, different dilutions of the substance) were performed. The values of optical density at 540 nm (OD540) were averaged for each row and the mean values of experimental and control rows were compared. As far as the ligands and their complexes were DMSO soluble, the appropriate controls of DMSO and DMSO + HIV-1 in growth medium were always considered.

The nature of series [2]: in vitro. Format: cell-based. As to conditions: MT-2 cells, neutral red uptake, 72 h.
From the text: as §1, §2, §3, §4

The test system of series [3] is HIV-1. As to conditions: at MNC, 72 h incubation, supernatants of HIV-1 infected MT-2 cells, averaged after at least 3 experiments.
Protocol: Endogenous RT activity of supernatants of HIV-1 infected MT-2 cells treated/untreated with complexes and ligands was tested by HS-Lenti Kit-RT assay (Cavidi, Sweden). The kit contained recombinant RT (rRT) as a standard which made possible quantitation of the RT in the sample. The method is nonradioactive and colorimetrically detects RT activity product (DNA) at 405 nm (OD405) [3].
Series [4] concerns HIV-1LAI. Put plainly: Microtiter infection assay (neutral red uptake), acute infection of MT-2 cells. To be noted: for Inhibition (%): 2.5 μM, HIV-1LAI infected MT-2 cells; for anti-HIV potency (in words): MT-2/HIV-1, at or under MNC. It is filed as cell-based. The protocol:
As a source of HIV-1, the supernatant of H9/HTLV III B cell line was used. The supernatants were collected and centrifuged to remove the cells, and virus stocks were prepared with known p24 antigen content, RT activity and infectivity. MT-2 cells were infected with HIV-1 (multiplicity of infection ≥ 1) in suspension (37°C/5% CO2) and then grown parallely with uninfected ones for 72 hours.
CC50 and MNC were detected by neutral red uptake assay. IC50 was studied on MT-2 cells by microtiter infection assay using neutral red uptake. Briefly, the experimental procedure under conditions of acute infection was performed in 96-well microplates in the following sequence:
as §3, §4

Series [5] deals with H9/HTLV III B cells chronically producing HIV-1LAI. Briefly: Chronic infection: microtiter infection assay on MT-2 cells with supernatants of treated H9/HTLV III B cells. It is filed as cell-based. As to conditions: undiluted supernatant on MT-2 cells. The protocol: (§5) The effect of the compounds was also studied under conditions of chronic infection using productively HIV-infected cells (H9/HTLV III B). The production of infectious virions was measured again using the cytopathic effect of supernatants on MT-2 cells as described above.
(§6) To address further the target of HIV inhibition especially by La(W), a study of this complex for effect on late stages of HIV-1 life cycle (protease, budding, assembly) was carried out. To do this, we treated H9/HTLV III B cells—chronically producing HIV-1—with La(W) at 3 concentrations, starting from MNC. Also, 10× dilution of Indinavir was used as a reference for antiprotease effect. Table 7 represents the results for the effect of La(W) in 3 concentrations on late stages of HIV replication.

The test system is the same in series [6]. Briefly: Chronic infection: RT activity in supernatants of treated H9/HTLV III B cells. It is filed as cell-based. The protocol:
as §5, §6

For orientation: CC50 means the concentration giving 50% cytotoxicity. Higher therefore signals lower toxicity to the cells. Consider `O=c1oc2ccccc2c(O)c1C(c1ccccc1)c1c(O)c2ccccc2oc1=O` [(1), 3,3′-benzylidenebis[4-hydroxycoumarin]], for which the “MNC (maximal nontoxic concentration)” value in series [1] is on record as 0,25 μM. This molecule also had a CC50 at 72 h in series [2] of 25 µM.

Turning to `CC(=O)CC(c1ccccc1)c1c(O)c2ccccc2oc1=O` (centres unmarked) [(W), 4-hydroxy-3-(3-oxo-1-phenylbutyl)-2H-1-benzopyran-2-one, reference compound], the “MNC (maximal nontoxic concentration)” value in series [1] was 25 µM. Moreover, the CC50 at 72 h in series [2] came to 250 µM. For the same molecule, the “HIV inhibition (%) Endogenous RT activity” value in series [3] is recorded as “∼ 1%”.

Turning to `O.O.O=c1oc2ccccc2c([O-])c1C(c1ccccc1)c1c([O-])c2ccccc2oc1=O.[Ce+3].[OH-]` [Ce(1)], in series [4] (72 h incubation), the “Inhibition (%)” value was 8,7%. For the same molecule, the “anti-HIV potency (in words)” value in series [4] is given as “limited anti-HIV potency”. Also, in series [1], the CC50 was 25 µM; the “MNC (maximal nontoxic concentration)” value is listed as 12,5 μM; the “MNC higher compared to La(1) and the ligand (1)” value is recorded as 10–50 times. Besides, the “HIV inhibition (%) Endogenous RT activity” value in series [3] is recorded as “∼ 1%”.

Take `CC(C)(C)NC(=O)[C@@H]1CN(Cc2cccnc2)CCN1C[C@@H](O)C[C@@H](Cc1ccccc1)C(=O)N[C@H]1c2ccccc2C[C@H]1O` [Indinavir]: the “Microtiter infection assay OD540” value in series [5] (0.05 μM) was found to be 0.739 OD540; in series [5] (0.5 μM), 0.633 OD540; in series [5] (5 μM) it was 0.520 OD540; in series [5] (50 μM), 0.375 OD540. Also, the “RT activity of SNs OD405” value in series [6] (0.05 μM) came to 1.454 OD405; in series [6] (0.5 μM), 1.400 OD405; in series [6] (5 μM), 1.154 OD405; in series [6] (50 μM), 0.903 OD405.

Consider `O.O=c1oc2ccccc2c([O-])c1C(c1ccccc1)c1c([O-])c2ccccc2oc1=O.[La+3].[OH-]` [La(1)], for which, in series [1], the CC50 came out at 25 µM and the “MNC (maximal nontoxic concentration)” value was 0,25 μM.

As to `O.O=c1oc2ccccc2c([O-])c1C(c1ccccc1)c1c([O-])c2ccccc2oc1=O.[Nd+3].[OH-]` [Nd(1)], the “Inhibition (%)” value in series [4] (72 h incubation) is reported as 10,4%. The “anti-HIV potency (in words)” value in series [4] is on record as “limited anti-HIV potency”. The “HIV inhibition (%) Microtiter infection assay” value in series [4] (at MNC, 72 h incubation, MT-2 cells, averaged after at least 3 experiments) is 10.4%. In series [1], the CC50 stood at 125 µM; the “MNC (maximal nontoxic concentration)” value came to 2.5 µM; the “MNC higher compared to La(1) and the ligand (1)” value was 10–50 times. In addition, the “lower cytotoxicity compared to the other lanthanides and the ligand (1)” value in series [1] (ratio of CC50, MT-2 cells) is on record as “at least 5 times”. The “HIV inhibition (%) Endogenous RT activity” value in series [3] is “∼ 1%”.
